This test concerns the target T1, human recombinant PDE10A (Homo sapiens, UniProt Q9Y233).
T1 construct: made in house; host or cells: SF21 insect cells (baculovirus)
As to the kind of experiment: Inhibition of PDE10, human recombinant PDE10A ([3H]-cAMP SPA). As to conditions: Table 9; read-out: hPDE10 IC50. It is filed as biochemical. The procedure: The gene was than inserted into a baculovirus vector, ligated with the baculovirus DNA. The enzyme-protein was expressed in SF21-cells. The enzyme was isolated from these cells by harvesting the cells by a centrifugation at 200 g to collect the cells. The cells were resuspended in 50 mM Tris-HCl/5 mM MgCl2 buffer (pH=7.4) and lysed by a sonication of the cells. The cytosolic PDE10A was obtained by a centrifugation at 48000 g for 1 h in the supernatant and stored at −70° C. PDE10 activity was determined in a one step procedure in microtiterplates. […] Nonspecific activity was tested without the enzyme. The reaction was initiated by addition of the substrate solution and was carried out at 37° C. for 30 minutes. Enzymatic activity was stopped by addition of 25 μl YSi-SPA-beads (Amersham-Pharmacia). One hour later the mixture was measured in a liquid scintillation counter for microtiterplates (Microbeta Trilux). To pipette the incubation mixture a robot Biomek (Fa. Beckman) is used. […] For determination of IC50 values the Hill-plot, 2-parameter-model, was used.

Where only a bound is given, the exact number is not on record here.

T1 sequence (Q9Y233 1-779 isoform Q9Y233-1): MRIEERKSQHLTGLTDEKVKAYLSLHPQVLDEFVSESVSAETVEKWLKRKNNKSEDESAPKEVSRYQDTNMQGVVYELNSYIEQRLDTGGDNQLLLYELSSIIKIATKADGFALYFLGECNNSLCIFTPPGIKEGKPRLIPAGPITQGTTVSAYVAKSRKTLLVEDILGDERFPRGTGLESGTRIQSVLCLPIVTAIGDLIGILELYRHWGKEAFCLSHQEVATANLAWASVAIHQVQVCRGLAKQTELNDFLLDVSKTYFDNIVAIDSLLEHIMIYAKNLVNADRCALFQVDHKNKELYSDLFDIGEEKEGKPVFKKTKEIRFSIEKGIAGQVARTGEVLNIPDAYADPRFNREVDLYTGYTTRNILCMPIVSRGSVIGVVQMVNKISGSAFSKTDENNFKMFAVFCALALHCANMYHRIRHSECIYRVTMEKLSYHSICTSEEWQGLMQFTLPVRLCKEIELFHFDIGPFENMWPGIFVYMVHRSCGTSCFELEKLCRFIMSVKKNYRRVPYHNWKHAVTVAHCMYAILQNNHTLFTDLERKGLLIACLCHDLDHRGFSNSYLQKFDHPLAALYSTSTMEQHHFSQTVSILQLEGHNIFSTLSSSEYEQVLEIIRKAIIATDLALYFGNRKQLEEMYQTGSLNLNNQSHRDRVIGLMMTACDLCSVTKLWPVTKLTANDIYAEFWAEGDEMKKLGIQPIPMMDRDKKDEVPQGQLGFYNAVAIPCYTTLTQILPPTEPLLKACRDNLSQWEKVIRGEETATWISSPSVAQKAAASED

As for `COc1ccc2nc(C)c3c(C)nc(-c4ccc(F)c(C(N)=O)c4)n3c2n1` [Example 130, 2-fluoro-5-(2-methoxy-6,7-dimethylimidazo[1,5-a]pyrido[3,2-e]pyrazin-9-yl)benzamide], the IC50 was less than 10 nM.
The value for `COc1ccc2nc(C)c3c(C)nc(-c4ccc(Cl)c(C(N)=O)c4)n3c2n1` [Example 131, 2-chloro-5-(2-methoxy-6,7-dimethylimidazo[1,5-a]pyrido[3,2-e]pyrazin-9-yl)benzamide] was 10 to 100 nM.
The value for `COc1ccc2nc(C)c3c(C)nc(-c4ccc(C(N)=O)c(Cl)c4)n3c2n1` [Example 132, 2-chloro-4-(2-methoxy-6,7-dimethylimidazo[1,5-a]pyrido[3,2-e]pyrazin-9-yl)benzamide] was less than 10 nM.
On to `COc1ccc2nc(C)c3c(C)nc(CC#N)n3c2n1` [Example 133, (2-Methoxy-6,7-dimethylimidazo[1,5-a]pyrido[3,2-e]pyrazin-9-yl)acetonitrile], for which the IC50 is greater than 100 nM.
In the case of `Cc1ccc(Cl)cc1-c1nc(C)c2c(C)nc3ccc(OCC4CC4)nc3n12` [Example 134, 9-(5-chloro-2-methylphenyl)-2-(cyclopropylmethoxy)-6,7-dimethylimidazo[1,5-a]pyrido[3,2-e]pyrazine] it was 10 to 100 nM; in that of `Cc1cc(F)ccc1-c1nc(C)c2c(C)nc3ccc(OCC4CC4)nc3n12` [Example 135, 2-(cyclopropylmethoxy)-9-(4-fluoro-2-methylphenyl)-6,7-dimethylimidazo[1,5-a]pyrido[3,2-e]pyrazine], 10 to 100 nM; in that of `Cc1c(F)cccc1-c1nc(C)c2c(C)nc3ccc(OCC4CC4)nc3n12` [Example 136, 2-(cyclopropylmethoxy)-9-(3-fluoro-2-methylphenyl)-6,7-dimethylimidazo[1,5-a]pyrido[3,2-e]pyrazine], less than 10 nM.
The value for `Cc1nc(-c2ccc(Cl)cc2C(F)(F)F)n2c1c(C)nc1ccc(OCC3CC3)nc12` [Example 137, 9-[4-chloro-2-(trifluoromethyl)phenyl]-2-(cyclopropylmethoxy)-6,7-dimethylimidazo[1,5-a]pyrido[3,2-e]pyrazine] was 10 to 100 nM.
The value for `Cc1nc(-c2ccc(F)cc2Cl)n2c1c(C)nc1ccc(OCC3CC3)nc12` [Example 138, 9-(2-chloro-4-fluorophenyl)-2-(cyclopropylmethoxy)-6,7-dimethylimidazo[1,5-a]pyrido[3,2-e]pyrazine] was less than 10 nM.
Take `COc1ccc(-c2nc(C)c3c(C)nc4ccc(OCC5CC5)nc4n23)cn1` [Example 139, 2-(cyclopropylmethoxy)-9-(6-methoxypyridin-3-yl)-6,7-dimethylimidazo[1,5-a]pyrido[3,2-e]pyrazine]: the IC50 is greater than 100 nM.
The value for `Cc1ccncc1-c1nc(C)c2c(C)nc3ccc(OCC4CC4)nc3n12` [Example 140, 2-(cyclopropylmethoxy)-6,7-dimethyl-9-(4-methylpyridin-3-yl)imidazo[1,5-a]pyrido[3,2-e]pyrazine] was 10 to 100 nM; that for `Cc1nc(F)ccc1-c1nc(C)c2c(C)nc3ccc(OCC4CC4)nc3n12` [Example 141, 2-(cyclopropylmethoxy)-9-(6-fluoro-2-methylpyridin-3-yl)-6,7-dimethylimidazo[1,5-a]pyrido[3,2-e]pyrazine] was less than 10 nM; that for `Cc1nc(-c2ccc(C(N)=O)cc2)n2c1c(C)nc1ccc(OCC3CC3)nc12` [Example 142, 4-[2-(cyclopropylmethoxy)-6,7-dimethylimidazo[1,5-a]pyrido[3,2-e]pyrazin-9-yl]benzamide] was less than 10 nM.
In the case of `Cc1nc(-c2cccc(C(N)=O)c2)n2c1c(C)nc1ccc(OCC3CC3)nc12` [Example 143, 3-[2-(cyclopropylmethoxy)-6,7-dimethylimidazo[1,5-a]pyrido[3,2-e]pyrazin-9-yl]benzamide] it was less than 10 nM; in that of `Cc1nc(-c2ccc(F)c(C(N)=O)c2)n2c1c(C)nc1ccc(OCC3CC3)nc12` [Example 144, 5-(2-(cyclopropylmethoxy)-6,7-dimethylimidazo[1,5-a]pyrido[3,2-e]pyrazin-9-yl)-2-fluorobenzamide], less than 10 nM.

What is called IC50 is the concentration at which inhibition is half-maximal.

These data come from patent US20090143361A1, “Pyrido[3,2-E]Pyrazines, Process For Preparing The Same, And Their Use As Inhibitors Of Phosphodiesterase 10” (ELBION GMBH, priority 2007, published 2009).
